Article PMC9963398, “Discovery of New Quinolone-Based Diarylamides as Potent B-RAF^V600E/C-RAF Kinase Inhibitors Endowed with Promising In Vitro Anticancer Activity” (International Journal of Molecular Sciences, 2023)

Key:
B-RAF^V600E = target: T1, B-RAF^V600E (Homo sapiens, UniProt P15056, V600E); experiment: HotSpot kinase assay (RBC), B-RAF^V600E; format: biochemical; details: 10 µM ATP, 10-dose singlicate IC50 mode
T1 construct: purchased Reaction Biology Corporation (RBC), Kinase HotSpot service
T1 sequence (P15056 whole entry V600E): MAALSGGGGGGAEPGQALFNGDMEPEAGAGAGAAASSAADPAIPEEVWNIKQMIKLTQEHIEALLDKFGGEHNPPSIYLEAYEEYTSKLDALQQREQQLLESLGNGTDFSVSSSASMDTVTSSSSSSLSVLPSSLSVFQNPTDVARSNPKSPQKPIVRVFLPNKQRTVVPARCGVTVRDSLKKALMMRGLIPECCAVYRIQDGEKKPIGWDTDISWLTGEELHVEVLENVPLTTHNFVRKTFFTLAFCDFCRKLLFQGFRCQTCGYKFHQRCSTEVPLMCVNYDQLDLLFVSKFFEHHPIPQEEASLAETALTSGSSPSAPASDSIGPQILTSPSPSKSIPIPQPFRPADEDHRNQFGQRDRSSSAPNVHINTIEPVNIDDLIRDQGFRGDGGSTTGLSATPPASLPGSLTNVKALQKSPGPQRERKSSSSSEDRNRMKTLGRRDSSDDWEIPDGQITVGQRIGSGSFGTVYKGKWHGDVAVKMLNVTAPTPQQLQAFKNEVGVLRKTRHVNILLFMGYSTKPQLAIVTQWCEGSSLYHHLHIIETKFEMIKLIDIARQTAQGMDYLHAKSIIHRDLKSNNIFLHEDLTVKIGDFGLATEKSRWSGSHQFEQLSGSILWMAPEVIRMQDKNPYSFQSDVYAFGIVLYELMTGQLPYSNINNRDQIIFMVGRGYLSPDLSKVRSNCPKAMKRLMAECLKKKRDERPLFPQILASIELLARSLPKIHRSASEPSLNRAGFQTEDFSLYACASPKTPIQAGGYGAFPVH

A498 = experiment: NCI-60 five-dose SRB assay; format: cell-based; details: Homo sapiens; A498, Renal cancer, five-dose test
Protocol: (§1) The anticancer screening of target compounds over a full panel of 60 human cancer cell lines was carried out using Sulforhodamine B (SRB) assay at the National Cancer Institute (NCI), Bethesda, Maryland, USA, employing the standard protocol.

ACHN = experiment: NCI-60 five-dose SRB assay; format: cell-based; details: Homo sapiens, Renal cancer, five-dose test
Protocol: as §1

CAKI-1 = experiment: NCI-60 five-dose SRB assay; format: cell-based; details: Homo sapiens; CAKI-1, Renal cancer, five-dose test
Protocol: as §1

CCRF-CEM = experiment: NCI-60 five-dose SRB assay; format: cell-based; details: Homo sapiens, Leukemia, five-dose test
Protocol: as §1

COLO 205 = experiment: NCI-60 five-dose SRB assay; format: cell-based; details: Homo sapiens; COLO 205, Colon cancer, five-dose test
Protocol: as §1

DU-145 = experiment: NCI-60 five-dose SRB assay; format: cell-based; details: Homo sapiens; DU-145, Prostate cancer, five-dose test
Protocol: as §1

HCC-2998 = experiment: NCI-60 five-dose SRB assay; format: cell-based; details: Homo sapiens; HCC-2998, Colon cancer, five-dose test
Protocol: as §1

HCT-116 = experiment: NCI-60 five-dose SRB assay; format: cell-based; details: Homo sapiens; HCT-116, Colon cancer, five-dose test
Protocol: as §1

HL-60(TB) = experiment: NCI-60 five-dose SRB assay; format: cell-based; details: Homo sapiens, Leukemia, five-dose test
Protocol: as §1

HOP-92 = experiment: NCI-60 five-dose SRB assay; format: cell-based; details: Homo sapiens; HOP-92, NSCL cancer, five-dose test
Protocol: as §1

HS 578T = experiment: NCI-60 five-dose SRB assay; format: cell-based; details: Homo sapiens, Breast cancer, five-dose test
Protocol: as §1

HT29 = experiment: NCI-60 five-dose SRB assay; format: cell-based; details: Homo sapiens, HT-29; HT29, Colon cancer, five-dose test
Protocol: as §1

IGROV1 = experiment: NCI-60 five-dose SRB assay; format: cell-based; details: Homo sapiens, IGROV-1; IGROV1, Ovarian cancer, five-dose test
Protocol: as §1

MCF7 = experiment: NCI-60 five-dose SRB assay; format: cell-based; details: Homo sapiens; MCF7, Breast cancer, five-dose test
Protocol: as §1

MDA-MB-435 = experiment: NCI-60 five-dose SRB assay; format: cell-based; details: Homo sapiens; MDA-MB-435, Melanoma, five-dose test
Protocol: as §1

MOLT-4 = experiment: NCI-60 five-dose SRB assay; format: cell-based; details: Homo sapiens; MOLT-4, Leukemia, five-dose test
Protocol: as §1

NCI-H226 = experiment: NCI-60 five-dose SRB assay; format: cell-based; details: Homo sapiens; NCI-H226, NSCL cancer, five-dose test
Protocol: as §1

NCI-H23 = experiment: NCI-60 five-dose SRB assay; format: cell-based; details: Homo sapiens; NCI-H23, NSCL cancer, five-dose test
Protocol: as §1

NCI-H460 = experiment: NCI-60 five-dose SRB assay; format: cell-based; details: Homo sapiens; NCI-H460, NSCL cancer, five-dose test
Protocol: as §1

NCI-H522 = experiment: NCI-60 five-dose SRB assay; format: cell-based; details: Homo sapiens; NCI-H522, NSCL cancer, five-dose test
Protocol: as §1

OVCAR-3 = experiment: NCI-60 five-dose SRB assay; format: cell-based; details: Homo sapiens; OVCAR-3, Ovarian cancer, five-dose test
Protocol: as §1

OVCAR-4 = experiment: NCI-60 five-dose SRB assay; format: cell-based; details: Homo sapiens; OVCAR-4, Ovarian cancer, five-dose test
Protocol: as §1

OVCAR-5 = experiment: NCI-60 five-dose SRB assay; format: cell-based; details: Homo sapiens; OVCAR-5, Ovarian cancer, five-dose test
Protocol: as §1

OVCAR-8 = experiment: NCI-60 five-dose SRB assay; format: cell-based; details: Homo sapiens; OVCAR-8, Ovarian cancer, five-dose test
Protocol: as §1

SF-295 = experiment: NCI-60 five-dose SRB assay; format: cell-based; details: Homo sapiens; SF-295, CNS cancer, five-dose test
Protocol: as §1

SF-539 = experiment: NCI-60 five-dose SRB assay; format: cell-based; details: Homo sapiens; SF-539, CNS cancer, five-dose test
Protocol: as §1

SK-MEL-2 = experiment: NCI-60 five-dose SRB assay; format: cell-based; details: Homo sapiens; SK-MEL-2, Melanoma, five-dose test
Protocol: as §1

SK-MEL-5 = experiment: NCI-60 five-dose SRB assay; format: cell-based; details: Homo sapiens; SK-MEL-5, Melanoma, five-dose test
Protocol: as §1

SK-OV-3 = experiment: NCI-60 five-dose SRB assay; format: cell-based; details: Homo sapiens; SK-OV-3, Ovarian cancer, five-dose test
Protocol: as §1

SN12C = experiment: NCI-60 five-dose SRB assay; format: cell-based; details: Homo sapiens, Renal cancer, five-dose test
Protocol: as §1

SR = experiment: NCI-60 five-dose SRB assay; format: cell-based; details: Homo sapiens, Leukemia, five-dose test
Protocol: as §1

T-47D = experiment: NCI-60 five-dose SRB assay; format: cell-based; details: Homo sapiens, T47D, Breast cancer, five-dose test
Protocol: as §1

TK-10 = experiment: NCI-60 five-dose SRB assay; format: cell-based; details: Homo sapiens; TK-10, Renal cancer, five-dose test
Protocol: as §1

U251 = experiment: NCI-60 five-dose SRB assay; format: cell-based; details: Homo sapiens, U-251; U251, CNS cancer, five-dose test
Protocol: as §1

UACC-62 = experiment: NCI-60 five-dose SRB assay; format: cell-based; details: Homo sapiens; UACC-62, Melanoma, five-dose test
Protocol: as §1

UO-31 = experiment: NCI-60 five-dose SRB assay; format: cell-based; details: Homo sapiens; UO-31, Renal cancer, five-dose test
Protocol: as §1

MDA-MB-231/ATCC = experiment: cells; details: Homo sapiens
Protocol: as §1

MDA-MB-468 = experiment: cells; details: Homo sapiens
Protocol: as §1

PC-3 = experiment: cells; details: Homo sapiens
Protocol: as §1

C-RAF = C-RAF (Homo sapiens, UniProt P04049); experiment: HotSpot kinase assay (RBC), C-RAF; details: IC50 C-RAF, 10 µM ATP, 10-dose singlicate IC50 mode
Chain of C-RAF (P04049 whole entry): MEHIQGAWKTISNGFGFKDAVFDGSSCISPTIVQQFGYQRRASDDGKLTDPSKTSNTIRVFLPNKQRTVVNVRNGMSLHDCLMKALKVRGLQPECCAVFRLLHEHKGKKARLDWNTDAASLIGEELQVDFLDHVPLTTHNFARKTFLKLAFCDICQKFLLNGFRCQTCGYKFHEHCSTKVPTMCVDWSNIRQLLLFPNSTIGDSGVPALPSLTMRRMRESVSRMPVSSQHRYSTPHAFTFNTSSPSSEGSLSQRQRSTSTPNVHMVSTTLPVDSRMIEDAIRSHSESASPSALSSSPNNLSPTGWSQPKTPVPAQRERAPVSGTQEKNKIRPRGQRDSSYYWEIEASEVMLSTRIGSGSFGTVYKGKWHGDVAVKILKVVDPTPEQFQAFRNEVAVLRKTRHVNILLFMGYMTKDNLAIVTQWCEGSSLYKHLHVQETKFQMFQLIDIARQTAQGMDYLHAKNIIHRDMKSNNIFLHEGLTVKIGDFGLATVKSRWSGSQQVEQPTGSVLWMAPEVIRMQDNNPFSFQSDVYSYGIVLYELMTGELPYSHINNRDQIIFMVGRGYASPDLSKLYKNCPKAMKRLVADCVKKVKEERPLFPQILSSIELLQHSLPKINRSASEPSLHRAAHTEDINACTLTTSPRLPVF
Source text: Reaction Biology Corporation (RBC) Kinase HotSpotSM service was utilized for cell-free biochemical kinase evaluation of the target compounds according to the reported assay protocol [46].

Compound `COc1cccc2nc(Nc3cccc(NC(=O)c4ccc(CN5CCN(C)CC5)c(C(F)(F)F)c4)c3)ccc12` [Compound 14a, 4-((4-methylpiperazin-1-yl)methyl)-N-(3-((5-methoxyquinolin-2-yl)amino)phenyl)-3-(trifluoromethyl)benzamide] has an IC50 (B-RAF^V600E) of 0.498 ± 0.0358 µM, a GI50 (A498) of 2 µM and a GI50 (ACHN) of 2.05 µM. It also gave a GI50 (CAKI-1) of 1.81 µM, a GI50 (CCRF-CEM) of 2.1 µM and a GI50 (COLO 205) of 1.79 µM. It also gave a GI50 (DU-145) of 1.98 µM, a GI50 (HCC-2998) of 1.99 µM and a GI50 (HCT-116) of 1.82 µM. It also gave a GI50 (HL-60(TB)) of 1.22 µM, a GI50 (HOP-92) of 1.5 µM and a GI50 (HS 578T) of 1.84 µM. For the same compound, the GI50 (HT29) was 1.86 µM, the GI50 (IGROV1) was 2.25 µM and the GI50 (MCF7) was 1.57 µM. The GI50 (MDA-MB-435) was 1.68 µM, the GI50 (MOLT-4) was 1.45 µM and the GI50 (NCI-H226) was 4.63 µM. For the same compound, the GI50 (NCI-H23) was 1.91 µM, the GI50 (NCI-H460) was 1.71 µM and the GI50 (NCI-H522) was 1.79 µM. The GI50 (OVCAR-3) was 2.15 µM, the GI50 (OVCAR-4) was 2.21 µM and the GI50 (OVCAR-5) was 1.84 µM. For the same compound, the GI50 (OVCAR-8) was 3.09 µM, the GI50 (SF-295) was 1.77 µM and the GI50 (SF-539) was 1.64 µM. For the same compound, the GI50 (SK-MEL-2) was 3.52 µM, the GI50 (SK-MEL-5) was 1.62 µM and the GI50 (SK-OV-3) was 9.22 µM. It also gave a GI50 (SN12C) of 1.71 µM, a GI50 (SR) of 1.85 µM and a GI50 (T-47D) of 2.28 µM. It also gave a GI50 (TK-10) of 2.15 µM, a GI50 (U251) of 1.92 µM and a GI50 (UACC-62) of 1.75 µM. The GI50 (UO-31) was 1.64 µM, the GI50 (MDA-MB-231/ATCC) was 1.77 µM and the GI50 (MDA-MB-468) was 1.92 µM. For the same compound, the GI50 (PC-3) was 1.7 µM and the IC50 (C-RAF) was 0.151 ± 0.00235 µM.

`COc1cccc2nc(Nc3cccc(NC(=O)c4ccc(CN5CCCN(C)CC5)c(C(F)(F)F)c4)c3)ccc12` [Compound 14b, N-(3-((5-methoxyquinolin-2-yl)amino)phenyl)-4-((4-methyl-1,4-diazepan-1-yl)methyl)-3-(trifluoromethyl)benzamide] gave an IC50 (B-RAF^V600E) of 0.355 ± 0.0108 µM, a GI50 (A498) of 13.5 µM and a GI50 (ACHN) of 1.87 µM. It also gave a GI50 (CAKI-1) of 1.72 µM, a GI50 (CCRF-CEM) of 1.62 µM and a GI50 (COLO 205) of 1.81 µM. It also gave a GI50 (DU-145) of 2.19 µM, a GI50 (HCC-2998) of 1.71 µM and a GI50 (HCT-116) of 1.67 µM. It also gave a GI50 (HL-60(TB)) of 1.65 µM, a GI50 (HS 578T) of 2.46 µM and a GI50 (HT29) of 1.66 µM. It also gave a GI50 (IGROV1) of 1.81 µM, a GI50 (MCF7) of 1.59 µM and a GI50 (MDA-MB-435) of 1.8 µM. For the same compound, the GI50 (MOLT-4) was 1.24 µM, the GI50 (NCI-H226) was 1.94 µM and the GI50 (NCI-H23) was 1.68 µM. The GI50 (NCI-H460) was 1.76 µM, the GI50 (NCI-H522) was 1.76 µM and the GI50 (OVCAR-3) was 2.14 µM. For the same compound, the GI50 (OVCAR-4) was 2.67 µM, the GI50 (OVCAR-5) was 1.71 µM and the GI50 (OVCAR-8) was 2.03 µM. It also gave a GI50 (SF-295) of 1.74 µM, a GI50 (SF-539) of 1.55 µM and a GI50 (SK-MEL-2) of 2.15 µM. For the same compound, the GI50 (SK-MEL-5) was 1.71 µM, the GI50 (SK-OV-3) was 4.33 µM and the GI50 (SN12C) was 1.63 µM. It also gave a GI50 (T-47D) of 5.43 µM, a GI50 (TK-10) of 4.91 µM and a GI50 (U251) of 1.76 µM. It also gave a GI50 (UACC-62) of 1.81 µM, a GI50 (UO-31) of 1.74 µM and a GI50 (MDA-MB-231/ATCC) of 1.83 µM. It also gave a GI50 (MDA-MB-468) of 1.56 µM, a GI50 (PC-3) of 1.54 µM and an IC50 (C-RAF) of 0.192 ± 0.0006 µM.
